Assay results reported in patent publication US20230085307A1, “PYRIDAZINONE COMPOUND AND HERBICIDE” (NISSAN CHEMICAL CORPORATION, priority 2019, published 2023).

System: late watergrass
Assay: Test Example 1: herbicidal activity, application before weed generation under submerged conditions (Table 16, symbol A)
Type: in vivo, late watergrass (Echinochloa oryzicola)
Details: 320 g/ha applied herbicide
Method in brief: (§1)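 Alluvial soil was flooded to 4 cm depth, weed seeds were sown mixed and 2.5-leaf rice seedlings were transplanted. On sowing day, the compound's emulsion, diluted in water to a set dose, was applied to the water surface. Plants grew at 25–30 °C and were scored 0–5 after three weeks.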

| Structure (SMILES) | Herbicidal effect on A: late watergrass (grade 0-5) |
| --- | --- |
| CCCC(=O)Oc1c(C)nn(C)c(=O)c1-c1c(-c2ccc(CC)cc2)sc2ccc(F)cc12 [2-016] | 5 (Herbicidal rate of 90% or more (almost completely withered)) |
| C=Cc1ccc(-c2sc3ccc(F)cc3c2-c2c(O)c(C)nn(C)c2=O)cc1 [2-018] | 0 (Herbicidal rate of 5% or less (almost no effect)) |

System: Japanese bulrush
Assay: Test Example 1: herbicidal activity, application before weed generation under submerged conditions (Table 16, symbol B)
Type: in vivo, Japanese bulrush (Schoenoplectus juncoides)
Details: 320 g/ha applied herbicide
Method in brief: as §1

| Structure (SMILES) | Herbicidal effect on B: Japanese bulrush (grade 0-5) |
| --- | --- |
| CCCC(=O)Oc1c(C)nn(C)c(=O)c1-c1c(-c2ccc(CC)cc2)sc2ccc(F)cc12 [2-016] | 3 (Herbicidal rate of 40% or more and less than 70%) |
| C=Cc1ccc(-c2sc3ccc(F)cc3c2-c2c(O)c(C)nn(C)c2=O)cc1 [2-018] | 3 (Herbicidal rate of 40% or more and less than 70%) |

System: late watergrass
Assay: Test Example 2: herbicidal activity, application during weed generation under submerged conditions (Table 17, symbol A)
Type: in vivo, late watergrass (Echinochloa oryzicola)
Details: AAH 320 g/ha; application during weed generation, submerged conditions
Method in brief: (§2)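 Alluvial soil in Wagner pots was flooded to 4 cm depth and sown with the three weeds together; pots were kept in a greenhouse at 25° C. to 30° C. At the one to two leaf stage, an emulsion formulation diluted in water to a set rate went onto the water surface; scored three weeks later.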

| Structure (SMILES) | herbicidal effect rating, A: late watergrass |
| --- | --- |
| CCCC(=O)Oc1c(C)nn(C)c(=O)c1-c1c(-c2ccc(CC)cc2)sc2ccc(F)cc12 [2-016] | 3 (Herbicidal rate of 40% or more and less than 70%) |
| C=Cc1ccc(-c2sc3ccc(F)cc3c2-c2c(O)c(C)nn(C)c2=O)cc1 [2-018] | 3 (Herbicidal rate of 40% or more and less than 70%) |

System: oval-leafed pondweed
Assay: Test Example 2: herbicidal activity, application during weed generation under submerged conditions (Table 17, symbol C)
Type: in vivo, oval-leafed pondweed (Monochoria vaginalis)
Details: AAH 320 g/ha; application during weed generation, submerged conditions
Method in brief: as §2

| Structure (SMILES) | herbicidal effect rating, C: oval-leafed pondweed |
| --- | --- |
| CCCC(=O)Oc1c(C)nn(C)c(=O)c1-c1c(-c2ccc(CC)cc2)sc2ccc(F)cc12 [2-016] | 4 (Herbicidal rate of 70% or more and less than 90%) |
| C=Cc1ccc(-c2sc3ccc(F)cc3c2-c2c(O)c(C)nn(C)c2=O)cc1 [2-018] | 3 (Herbicidal rate of 40% or more and less than 70%) |

System: barnyard grass
Assay: Test Example 3: herbicidal effect by foliage application, Wagner pot (Table 18, symbol H)
Type: in vivo, barnyard grass (Echinochloa crus-galli)
Details: 320 g/ha
Method in brief: (§3)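 Plants were sown in alluvial soil held under 0.1–0.5 cm standing water and grown 14 days in a greenhouse at 25–30 °C. An emulsifiable formulation, water-diluted to the set dose, was then sprayed onto the foliage, and effects were scored three weeks later using previously defined criteria.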

| Structure (SMILES) | herbicidal effect on H (barnyard grass), rating 0-5 |
| --- | --- |
| CCCC(=O)Oc1c(C)nn(C)c(=O)c1-c1c(-c2ccc(CC)cc2)sc2ccc(F)cc12 [2-016] | 5 (Herbicidal rate of 90% or more (almost completely withered)) |
| C=Cc1ccc(-c2sc3ccc(F)cc3c2-c2c(O)c(C)nn(C)c2=O)cc1 [2-018] | 5 (Herbicidal rate of 90% or more (almost completely withered)) |

System: Chinese sprangletop
Assay: Test Example 3: herbicidal effect by foliage application, Wagner pot (Table 18, symbol D)
Type: in vivo, chinese sprangletop (Leptochloa chinensis)
Details: 320 g/ha
Method in brief: as §3

| Structure (SMILES) | herbicidal effect on D (Chinese sprangletop), rating 0-5 |
| --- | --- |
| CCCC(=O)Oc1c(C)nn(C)c(=O)c1-c1c(-c2ccc(CC)cc2)sc2ccc(F)cc12 [2-016] | 5 (Herbicidal rate of 90% or more (almost completely withered)) |
| C=Cc1ccc(-c2sc3ccc(F)cc3c2-c2c(O)c(C)nn(C)c2=O)cc1 [2-018] | 4 (Herbicidal rate of 70% or more and less than 90%) |

System: rice flat sedge
Assay: Test Example 3: herbicidal effect by foliage application, Wagner pot (Table 18, symbol E)
Type: in vivo, rice flat sedge (Cyperus iria)
Details: 320 g/ha
Method in brief: as §3

| Structure (SMILES) | herbicidal effect on E (rice flat sedge), rating 0-5 |
| --- | --- |
| CCCC(=O)Oc1c(C)nn(C)c(=O)c1-c1c(-c2ccc(CC)cc2)sc2ccc(F)cc12 [2-016] | 5 (Herbicidal rate of 90% or more (almost completely withered)) |
| C=Cc1ccc(-c2sc3ccc(F)cc3c2-c2c(O)c(C)nn(C)c2=O)cc1 [2-018] | 5 (Herbicidal rate of 90% or more (almost completely withered)) |

System: Italian ryegrass
Assay: Test Example 4: herbicidal effect by soil treatment (Table 19, symbol K)
Type: in vivo, Italian ryegrass (Lolium multiflorum)
Details: 320 g/ha
Method in brief: (§4)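 Step 1: sow seeds in sterilized diluvial soil, cover ~1.5 cm. Step 2: spray diluted emulsion onto soil surface at predetermined rate. Step 3: greenhouse, 25–30° C, three weeks. Step 4: grade effect on each plant by earlier criteria.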

| Structure (SMILES) | herbicidal effect rating, K: Italian ryegrass |
| --- | --- |
| CCCC(=O)Oc1c(C)nn(C)c(=O)c1-c1c(-c2ccc(CC)cc2)sc2ccc(F)cc12 [2-016] | 3 (Herbicidal rate of 40% or more and less than 70%) |
| C=Cc1ccc(-c2sc3ccc(F)cc3c2-c2c(O)c(C)nn(C)c2=O)cc1 [2-018] | 4 (Herbicidal rate of 70% or more and less than 90%) |

System: windgrass
Assay: Test Example 4: herbicidal effect by soil treatment (Table 19, symbol L)
Type: in vivo, windgrass (Apera spica-venti)
Details: 320 g/ha
Method in brief: as §4

| Structure (SMILES) | herbicidal effect rating, L: windgrass |
| --- | --- |
| CCCC(=O)Oc1c(C)nn(C)c(=O)c1-c1c(-c2ccc(CC)cc2)sc2ccc(F)cc12 [2-016] | 1 (Herbicidal rate of 5% or more and less than 20%) |
| C=Cc1ccc(-c2sc3ccc(F)cc3c2-c2c(O)c(C)nn(C)c2=O)cc1 [2-018] | 2 (Herbicidal rate of 20% or more and less than 40%) |

System: redroot pigweed
Assay: Test Example 4: herbicidal effect by soil treatment (Table 19, symbol N)
Type: in vivo, redroot pigweed (Amaranthus retroflexus)
Details: 320 g/ha
Method in brief: as §4

| Structure (SMILES) | herbicidal effect rating, N: redroot pigweed |
| --- | --- |
| CCCC(=O)Oc1c(C)nn(C)c(=O)c1-c1c(-c2ccc(CC)cc2)sc2ccc(F)cc12 [2-016] | 5 (Herbicidal rate of 90% or more (almost completely withered)) |
| C=Cc1ccc(-c2sc3ccc(F)cc3c2-c2c(O)c(C)nn(C)c2=O)cc1 [2-018] | 4 (Herbicidal rate of 70% or more and less than 90%) |

System: green foxtail
Assay: Test Example 5: herbicidal effect by foliage application, plastic box (Table 20, symbol G)
Type: in vivo, green foxtail (Setaria viridis)
Details: foliage application, 320 g/ha, 3 weeks after application
Method in brief: (§5)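 Foliar spray test: emulsion formulation diluted in water to a set application rate, sprayed onto 14-day-old plants raised in diluvial soil at 25° C to 30° C under glass. Both herbicidal effect and crop effect rated visually three weeks later.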

| Structure (SMILES) | effect on green foxtail (G) |
| --- | --- |
| CCCC(=O)Oc1c(C)nn(C)c(=O)c1-c1c(-c2ccc(CC)cc2)sc2ccc(F)cc12 [2-016] | 0 (Herbicidal rate of 5% or less (almost no effect)) |
| C=Cc1ccc(-c2sc3ccc(F)cc3c2-c2c(O)c(C)nn(C)c2=O)cc1 [2-018] | 5 (Herbicidal rate of 90% or more (almost completely withered)) |

System: barnyard grass
Assay: Test Example 5: herbicidal effect by foliage application, plastic box (Table 20, symbol H)
Type: in vivo, barnyard grass (Echinochloa crus-galli)
Details: foliage application, 320 g/ha, 3 weeks after application
Method in brief: as §5

| Structure (SMILES) | effect on barnyard grass (H) |
| --- | --- |
| CCCC(=O)Oc1c(C)nn(C)c(=O)c1-c1c(-c2ccc(CC)cc2)sc2ccc(F)cc12 [2-016] | 3 (Herbicidal rate of 40% or more and less than 70%) |
| C=Cc1ccc(-c2sc3ccc(F)cc3c2-c2c(O)c(C)nn(C)c2=O)cc1 [2-018] | 4 (Herbicidal rate of 70% or more and less than 90%) |

System: wild oat
Assay: Test Example 5: herbicidal effect by foliage application, plastic box (Table 20, symbol I)
Type: in vivo, wild oat (Avena fatua)
Details: foliage application, 320 g/ha, 3 weeks after application
Method in brief: as §5

| Structure (SMILES) | effect on wild oat (I) |
| --- | --- |
| CCCC(=O)Oc1c(C)nn(C)c(=O)c1-c1c(-c2ccc(CC)cc2)sc2ccc(F)cc12 [2-016] | 3 (Herbicidal rate of 40% or more and less than 70%) |
| C=Cc1ccc(-c2sc3ccc(F)cc3c2-c2c(O)c(C)nn(C)c2=O)cc1 [2-018] | 5 (Herbicidal rate of 90% or more (almost completely withered)) |

System: blackgrass
Assay: Test Example 5: herbicidal effect by foliage application, plastic box (Table 20, symbol J)
Type: in vivo, blackgrass (Alopecurus myosuroides)
Details: foliage application, 320 g/ha, 3 weeks after application
Method in brief: as §5

| Structure (SMILES) | effect on blackgrass (J) |
| --- | --- |
| CCCC(=O)Oc1c(C)nn(C)c(=O)c1-c1c(-c2ccc(CC)cc2)sc2ccc(F)cc12 [2-016] | 1 (Herbicidal rate of 5% or more and less than 20%) |
| C=Cc1ccc(-c2sc3ccc(F)cc3c2-c2c(O)c(C)nn(C)c2=O)cc1 [2-018] | 1 (Herbicidal rate of 5% or more and less than 20%) |

System: Italian ryegrass
Assay: Test Example 5: herbicidal effect by foliage application, plastic box (Table 20, symbol K)
Type: in vivo, Italian ryegrass (Lolium multiflorum)
Details: foliage application, 320 g/ha, 3 weeks after application
Method in brief: as §5

| Structure (SMILES) | effect on Italian ryegrass (K) |
| --- | --- |
| CCCC(=O)Oc1c(C)nn(C)c(=O)c1-c1c(-c2ccc(CC)cc2)sc2ccc(F)cc12 [2-016] | 5 (Herbicidal rate of 90% or more (almost completely withered)) |
| C=Cc1ccc(-c2sc3ccc(F)cc3c2-c2c(O)c(C)nn(C)c2=O)cc1 [2-018] | 4 (Herbicidal rate of 70% or more and less than 90%) |
